Results on three molecules are retold here after patent US20100063085A1, “METHOD OF TREATING LEARNING IMPAIRMENT IN DOWN'S SYNDROME SUBJECTS” (University Court of The University of Dundee, priority 2008, published 2010).

Experiment [1] deals with PIM2 (Homo sapiens, UniProt Q9P1W9). In words: PIM2 33P kinase assay. Type of experiment: biochemical. The conditions noted are these: read-out: PIM2 activity as percentage of control without inhibitor. How it is done:
(§1) All assays (25.5 μl) were carried out at room temperature (21° C.) and were linear with respect to time and enzyme concentrations under the conditions used. Assays were performed for 30 minutes except assays for LCK and PKB which were performed for 15 minutes using Multidrop Micro reagent dispensers (Thermo Electron Corporation, Waltham, Mass. 02454, USA) in a 96-well format. The concentration of […] [γ-^33P] ATP (800 cpm/pmol) in the assays was one of three concentrations (5, 20 or 50 μM) in order to be at or below Km for ATP for the enzyme. Assays were initiated with MgATP and stopped by addition of 5 μl of 0.5M orthophosphoric acid. Assays were then harvested onto P81 filterplates using a unifilter harvester (PerkinElmer, Boston, Mass. 02118, USA), with a wash buffer of 50 mM orthophosphoric acid. Filterplates were then air dried overnight. 10 μl of Microscint O was added per well prior to counting for radioactivity.
(§2) The following kinases were assayed against the substrates indicated. Aurora B was assayed against the substrate peptide […] (300 μM), ERK8 and MST-2 were both assayed against MBP (0.33 mg/ml). IKKβ was assayed against the substrate peptide […] (300 μM), JNK3 was assayed against 3 μM ATF2[19-96]. MAPKAP-K3 and PKD1 were both assayed against […] (30 μM), MARK3 was assayed against CHKtide ([…]) substrate peptide (300 μM). MNK1 and MNK2 were both assayed against eIF4E protein (0.5 mg/ml). NEK7 was assayed against […] (300 μM), PIM2 was assayed against […] (300 μM), ΔPH PKBβ-S474D was assayed against Crosstide (30 μM), PLK1 was assayed against […] (300 μM). PRK2 was assayed against Long S6 peptide, […] (30 μM), RSK2 was assayed against […] (30 μM), SRC was assayed against cdc2 peptide, […], (300 μM) and SRPK1 was assayed against peptide […] (300 μM). All enzymes were diluted in 50 mM Tris/HCl pH 7.5, 0.1 mM EGTA, 1 mg/ml BSA, 0.1% β-mercaptoethanol buffer and assayed in an incubation containing 50 mM Tris/HCl pH7.5, 0.1 mM EGTA, 0.1% β-mercaptoethanol, CAMK-1 (5-20 mU) diluted in 50 mM Tris/HCl pH 7.5, 0.1 mM EGTA, 1 mg/ml BSA, 0.1% β-mercaptoethanol is assayed against substrate peptide […] in an incubation containing 50 mM Tris/HCl pH 7.5, 0.1 mM EGTA, 0.5 mM CaCl2, 0.3 μM calmodulin, 0.1% β-mereaptoethanol, 300 μM substrate peptide, 10 mM magnesium acetate and 0.05 mM [^33P-γ-ATP] (500-1000 cpm/pmole). EF2K (5-20 mU) diluted in 50 mM Hepes pH 6.6, 0.1% β-mercaptoethanol, 1 mg/ml BSA is assayed against a substrate peptide […] in an incubation containing 50 mM Hepes pH 6.6, 0.2 mM CaCl2, 0.3 μM Calmodulin, 0.05% b-mercaptoethanol, 300 μM substrate peptide, 10 mM magnesium acetate and 0.05 mM [^33P-γ-ATP] (500-1000 cpm/pmole).

For experiment [2], the target named is T1, EFK2 (Homo sapiens, UniProt O00418).
T1 sequence (O00418 1-725): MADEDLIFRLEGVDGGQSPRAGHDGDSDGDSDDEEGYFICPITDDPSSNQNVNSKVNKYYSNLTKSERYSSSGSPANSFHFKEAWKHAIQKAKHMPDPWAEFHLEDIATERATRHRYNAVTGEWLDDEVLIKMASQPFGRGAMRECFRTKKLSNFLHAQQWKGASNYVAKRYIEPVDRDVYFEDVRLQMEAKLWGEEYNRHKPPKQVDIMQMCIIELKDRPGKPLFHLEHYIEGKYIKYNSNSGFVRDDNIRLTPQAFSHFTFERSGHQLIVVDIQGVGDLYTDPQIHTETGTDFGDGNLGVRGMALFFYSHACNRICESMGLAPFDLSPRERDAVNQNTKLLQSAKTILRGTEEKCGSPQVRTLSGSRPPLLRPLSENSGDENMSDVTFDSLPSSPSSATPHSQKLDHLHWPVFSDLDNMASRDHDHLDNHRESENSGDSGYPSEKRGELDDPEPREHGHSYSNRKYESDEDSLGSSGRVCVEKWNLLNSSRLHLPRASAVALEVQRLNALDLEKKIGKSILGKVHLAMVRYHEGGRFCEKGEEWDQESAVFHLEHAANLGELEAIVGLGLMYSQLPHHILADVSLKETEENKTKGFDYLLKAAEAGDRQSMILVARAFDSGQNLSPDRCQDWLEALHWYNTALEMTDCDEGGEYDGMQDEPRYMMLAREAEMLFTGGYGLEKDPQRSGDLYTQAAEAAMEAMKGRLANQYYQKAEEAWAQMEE
In words: biochemical. The conditions noted are these: read-out: EFK2 activity as percentage of control without inhibitor. As to the method:
as §1, §2

Experiment [3] has as its target MKK1 (Homo sapiens, UniProt Q02750). In words: MKK1 33P kinase assay. The experiment is classed as biochemical. As to conditions: read-out: MKK1 activity as percentage of control without inhibitor. As to the method:
as §1
MKK1, JNK/SAPK1c, SAPK2a/p38, SAPK2b/p38β2, SAPK3/p38γ, SAPK4/p38δ, MAPK2/ERK2, MAPKAP-K1β, MAPKAP-K2, MSK1, PRAK, PKA, PKCα, PDK1, SGK, p70S6K, GSK3β, ROCK-II, PRK2, AMPK, CHK1, CHK2, CK2, PHK, LCK, were assayed according to Davies et al., (Davies, S. P., Reddy, H., Caivano, M. and Cohen, P. Biochem. J. 351, 95-105, 2000.
CSK and CDK2/cyclinA, were assayed according to Bain et al. (Bain J, McLauchlan H, Elliott M, Cohen P. Biochem J. 371, 199-204, 2003., except that ATP concentrations were either 5, 20 or 50 micromolar so that they were at or below the Km for ATP. The ATP concentrations used were as follows, 5 μM for assays of MKK1, SAPK3, SAPK4, GSK3β, PRK2 CK2 20 μm for assays of JNK, SAPK2β, MAPKAP-K2, MSK1, PRAK, PKA, […], PDK1, SGK, p70S6K, ROCK-II, CHK1, CHK2, CSK, CDK2, and 50 μM for assays of SAPK2a, MAPK2/ERK2, AMPK, LCK, PHK and MAPKAP-K1β.

Experiment [4] concerns the target PLK1 (Homo sapiens, UniProt P53350). Nature of the experiment: PLK1 33P kinase assay. Type of experiment: biochemical. The conditions noted are these: read-out: PLK1 activity as percentage of control without inhibitor. How it is done:
as §1, §2

Like-named read-outs stand apart in the source and are kept apart here.

Chain of PIM2 (Q9P1W9 whole entry, species assumed): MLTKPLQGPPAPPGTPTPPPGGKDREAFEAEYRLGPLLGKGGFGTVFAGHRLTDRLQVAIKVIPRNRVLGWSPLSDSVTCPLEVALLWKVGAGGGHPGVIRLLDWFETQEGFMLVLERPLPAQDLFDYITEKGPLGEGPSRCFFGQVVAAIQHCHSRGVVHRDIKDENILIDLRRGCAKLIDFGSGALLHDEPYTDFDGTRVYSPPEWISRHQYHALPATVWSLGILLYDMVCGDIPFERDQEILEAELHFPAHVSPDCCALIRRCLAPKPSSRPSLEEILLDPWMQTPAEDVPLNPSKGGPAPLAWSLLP
Chain of MKK1 (Q02750 whole entry, species assumed): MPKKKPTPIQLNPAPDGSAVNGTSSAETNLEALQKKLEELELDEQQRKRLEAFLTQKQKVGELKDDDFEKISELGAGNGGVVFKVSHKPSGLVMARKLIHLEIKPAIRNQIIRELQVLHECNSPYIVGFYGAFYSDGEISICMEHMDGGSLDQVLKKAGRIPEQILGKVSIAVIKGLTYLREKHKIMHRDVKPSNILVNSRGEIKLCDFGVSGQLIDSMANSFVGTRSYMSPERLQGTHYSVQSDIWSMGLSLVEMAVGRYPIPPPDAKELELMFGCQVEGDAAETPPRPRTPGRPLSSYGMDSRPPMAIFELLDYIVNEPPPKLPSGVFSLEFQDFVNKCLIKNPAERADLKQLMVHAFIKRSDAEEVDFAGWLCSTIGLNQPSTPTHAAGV
Chain of PLK1 (P53350 whole entry, species assumed): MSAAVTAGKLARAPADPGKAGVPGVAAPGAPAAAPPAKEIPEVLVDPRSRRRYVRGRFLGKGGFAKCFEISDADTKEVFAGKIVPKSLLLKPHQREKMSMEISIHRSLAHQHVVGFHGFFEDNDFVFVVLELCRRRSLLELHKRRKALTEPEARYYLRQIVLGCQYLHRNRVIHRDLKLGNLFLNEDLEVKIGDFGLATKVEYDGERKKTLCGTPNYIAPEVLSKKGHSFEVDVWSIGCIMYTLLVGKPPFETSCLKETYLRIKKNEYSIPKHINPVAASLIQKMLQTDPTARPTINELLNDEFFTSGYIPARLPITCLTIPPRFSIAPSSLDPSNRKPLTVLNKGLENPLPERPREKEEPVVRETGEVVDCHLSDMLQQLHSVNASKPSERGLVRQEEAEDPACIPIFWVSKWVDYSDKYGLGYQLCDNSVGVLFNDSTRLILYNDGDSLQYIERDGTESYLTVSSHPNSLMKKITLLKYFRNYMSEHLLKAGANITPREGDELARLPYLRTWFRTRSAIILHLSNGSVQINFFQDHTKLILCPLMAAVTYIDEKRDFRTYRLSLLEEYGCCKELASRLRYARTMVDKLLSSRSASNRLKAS

Take `COc1ccc2c(c1)[nH]c1c(C)nccc12` [Harmine]: the remaining activity at 1 µM in experiment [1] came to 77%; in experiment [2], 102%; in experiment [3], 76%; in experiment [4], 92%. For the same molecule, the remaining activity at 10 µM turned out to be 41% in experiment [1], 101% in experiment [2], 73% in experiment [3] and 87% in experiment [4].
As to `CC1=NCCc2c1[nH]c1cc(O)ccc21` [Harmalol], the remaining activity at 1 µM was determined as 90% in experiment [1] (inhibitor 1 μM), 97% in experiment [2] (inhibitor 1 μM), 92% in experiment [3] (inhibitor 1 μM) and 88% in experiment [4] (inhibitor 1 μM). In addition, the remaining activity at 10 µM was found to be 57% in experiment [1] (inhibitor 10 μM), 85% in experiment [2] (inhibitor 10 μM), 66% in experiment [3] (inhibitor 10 μM) and 81% in experiment [4] (inhibitor 10 μM).
In the case of `COc1ccc2c3c([nH]c2c1)C(C)=NCC3` [Harmaline], the remaining activity at 1 µM in experiment [1] (inhibitor 1 μM) turned out to be 86%; in experiment [2] (inhibitor 1 μM), 106%; in experiment [3] (inhibitor 1 μM) it was 47%; in experiment [4] (inhibitor 1 μM), 92%. Also, the remaining activity at 10 µM stood at 101% in experiment [1] (inhibitor 10 μM), 100% in experiment [2] (inhibitor 10 μM), 39% in experiment [3] (inhibitor 10 μM) and 100% in experiment [4] (inhibitor 10 μM).
